Several values for one entry are separate records, joined by “and”; a condition that tells them apart may be missing. Equal values may be shown once. Read-outs that look alike come from different tables or passages of the source.
Assays:
CNGA2RE:A4 = test system: CNGA2RE:A4; design: method as in Nache et al., 2012; key: +: ligand binding to the respective modulatory subunits was either observed or not; −: ligand binding to the respective modulatory subunits was either observed or not; details: 10 μM; construct CNGA2RE:A4; ref Nache et al., 2012; cited from earlier work
CNGA2:A4 channels = target: T1, CNGA2:A4 channels (Rattus norvegicus, UniProt Q00195+Q64359); experiment: Concentration-activation relationship, inside-out patch-clamp; format: biochemical
T1 construct: expressed in transfected cells; host or cells: Xenopus laevis oocytes (cRNA injection), excised inside-out patches
Experimental: (§1) Patch-clamp experiments were performed using an Axopatch 200B amplifier (Molecular Devices LLC, CA, U.S.A.) in the inside-out configuration. The patch pipettes for recording of macroscopic currents were pulled from borosilicate glass tubing (outer diameter 2.0 mm, inner diameter 1.0 mm; Hilgenberg GmbH, Germany). […] The patches were formed as pushed inside-out patches. […] Cyclic nucleotide concentration jumps were performed using a double-barreled glass pipette mounted on a piezo-driven device. Intracellular (bath) and extracellular (pipette) solutions contained (mM) 150 KCl, 1 EGTA, 5 Hepes, pH = 7.4 with KOH. […] Currents in the absence of the cyclic nucleotide were subtracted. All patches included in this study were first tested for channel expression in the presence of a saturating ligand concentration. Only patches with large current, i.e. a large number of channels, were included in our statistics. The currents were measured at +10 mV or, if mentioned, at +100 mV. Fits of equations to data points were performed with the 8.1G® software (OriginLab Corporation, Northampton, U.S.A.). Concentration-activation relationships were obtained by relating the actual current amplitude, I, to the maximum current amplitude elicited by a saturating concentration of ligand, Imax, and plotting this ratio as function of the ligand concentration, x. The concentration-activation data were fitted using the Hill equation where EC50 is the ligand concentration of half maximum effect and H the Hill coefficient.

CNGA2:B1b channels = target: T2, CNGA2:B1b channels (Rattus norvegicus, UniProt A0A8I5ZN27+Q00195); experiment: as above; format: biochemical
T2 construct: expressed in transfected cells; host or cells: Xenopus laevis oocytes (cRNA injection), excised inside-out patches
Experimental: as §1

[1] = target: T3, CNGA2RE:A4:B1bRE channels (Rattus norvegicus, UniProt A0A8I5ZN27+Q00195+Q64359, R1106E/R538E); experiment: Concentration-activation relationship, patch-clamp; format: biochemical; details: for EC50: Equation 2, +100 mV
T3 construct: expressed in transfected cells; host or cells: Xenopus laevis oocytes (cRNA injection), excised inside-out patches
Experimental: In order to determine the apparent affinity of the modulatory subunits in heterotetrameric CNGA2:A4:B1b channels for cGMP, we coexpressed each of them with disabled neighbored subunits, generating themselves activation effects only at much higher ligand concentrations. In case of two well-separated current components, this would allow us to determine the EC50 value for the CNGB1b and CNGA4 subunit in functional heterotetrameric channels.
(§2) Patch-clamp experiments were performed using an Axopatch 200B amplifier (Molecular Devices LLC, CA, U.S.A.) in the inside-out configuration. The patch pipettes for recording of macroscopic currents were pulled from borosilicate glass tubing (outer diameter 2.0 mm, inner diameter 1.0 mm; Hilgenberg GmbH, Germany). The initial resistance was 0.7–1.3 MΩ. The patches were formed as pushed inside-out patches. […] Cyclic nucleotide concentration jumps were performed using a double-barreled glass pipette mounted on a piezo-driven device. Intracellular (bath) and extracellular (pipette) solutions contained (mM) 150 KCl, 1 EGTA, 5 Hepes, pH = 7.4 with KOH. […] Currents in the absence of the cyclic nucleotide were subtracted. All patches included in this study were first tested for channel expression in the presence of a saturating ligand concentration. Only patches with large current, i.e. a large number of channels, were included in our statistics. The currents were measured at +10 mV or, if mentioned, at +100 mV.
(§3) Fits of equations to data points were performed with the 8.1G® software (OriginLab Corporation, Northampton, U.S.A.). Concentration-activation relationships were obtained by relating the actual current amplitude, I, to the maximum current amplitude elicited by a saturating concentration of ligand, Imax, and plotting this ratio as function of the ligand concentration, x. The concentration-activation data were fitted using the Hill equation
(§4) For the concentration-activation relationships showing two components, the data points were fitted to the sum of two Hill equations according to
(§5) EC50,h, EC50,l, Hh, and Hl are the ligand concentration of half maximum current and the Hill coefficient for the high and low affinity component, respectively. a and (1-a) denote the contribution of the high and low affinity component, respectively.

CNGA2RE:A4:B1b channels = target: T4, CNGA2RE:A4:B1b channels (Rattus norvegicus, UniProt A0A8I5ZN27+Q00195+Q64359, R538E); experiment: Concentration-activation relationship, patch-clamp; format: biochemical; details: for EC50: Equation 2, +100 mV
T4 construct: expressed in transfected cells; host or cells: Xenopus laevis oocytes (cRNA injection), excised inside-out patches
Experimental: In order to consider the combined apparent affinity of CNGA4 and CNGB1b, we measured the concentration-response relationship of CNGA2RE:A4:B1b channels (Fig. 3c; Table 1).
as §2, §3, §4, §5

[2] = test system: concatameric homotetrameric CNGA2 channels with three disabled subunits; design: method as in PMID 26858151; details: read-out: EC50 of one CNGA2 subunit; cited from earlier work
[3] = Hill coefficient of low affinity component, +100 mV
[4] = low affinity component, read-out: EC50,l

T4 sequence (Q00195 whole entry R538E): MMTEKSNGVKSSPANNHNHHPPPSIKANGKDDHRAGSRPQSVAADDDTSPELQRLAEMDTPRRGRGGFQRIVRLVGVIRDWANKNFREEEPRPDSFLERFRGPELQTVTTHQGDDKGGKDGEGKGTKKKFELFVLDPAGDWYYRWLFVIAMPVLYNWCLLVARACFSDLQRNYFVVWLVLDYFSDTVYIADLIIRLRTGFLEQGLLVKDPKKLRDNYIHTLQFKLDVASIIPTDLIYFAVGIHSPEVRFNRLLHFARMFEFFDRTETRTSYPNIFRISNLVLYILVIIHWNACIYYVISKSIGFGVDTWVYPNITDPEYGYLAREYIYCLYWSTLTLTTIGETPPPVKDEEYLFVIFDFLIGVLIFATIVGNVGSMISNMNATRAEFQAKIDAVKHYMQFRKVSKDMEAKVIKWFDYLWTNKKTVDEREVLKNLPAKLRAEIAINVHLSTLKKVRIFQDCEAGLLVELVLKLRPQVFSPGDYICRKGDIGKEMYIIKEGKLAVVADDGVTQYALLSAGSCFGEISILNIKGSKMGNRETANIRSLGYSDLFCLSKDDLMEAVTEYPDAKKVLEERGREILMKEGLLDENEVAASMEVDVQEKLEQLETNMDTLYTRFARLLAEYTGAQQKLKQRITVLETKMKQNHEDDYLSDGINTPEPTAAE
T4 sequence (Q64359 whole entry): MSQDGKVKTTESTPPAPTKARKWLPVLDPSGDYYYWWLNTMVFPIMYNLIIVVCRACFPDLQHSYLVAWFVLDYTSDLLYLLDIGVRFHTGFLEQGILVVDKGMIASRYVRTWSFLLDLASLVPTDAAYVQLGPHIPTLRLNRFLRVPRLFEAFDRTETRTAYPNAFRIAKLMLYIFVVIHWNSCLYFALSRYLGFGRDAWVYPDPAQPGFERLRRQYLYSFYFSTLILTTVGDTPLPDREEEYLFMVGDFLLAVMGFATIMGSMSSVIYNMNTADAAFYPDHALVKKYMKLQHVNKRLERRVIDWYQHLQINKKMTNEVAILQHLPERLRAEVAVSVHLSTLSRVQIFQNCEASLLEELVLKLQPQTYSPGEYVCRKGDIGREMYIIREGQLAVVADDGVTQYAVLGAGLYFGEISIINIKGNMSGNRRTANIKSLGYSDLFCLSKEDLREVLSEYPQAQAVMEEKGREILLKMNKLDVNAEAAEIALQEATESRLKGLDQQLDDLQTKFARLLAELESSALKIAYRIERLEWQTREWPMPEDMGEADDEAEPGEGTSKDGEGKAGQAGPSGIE
T4 sequence (A0A8I5ZN27 1-858 isoform A0A8I5ZN27-2, stated change not applied): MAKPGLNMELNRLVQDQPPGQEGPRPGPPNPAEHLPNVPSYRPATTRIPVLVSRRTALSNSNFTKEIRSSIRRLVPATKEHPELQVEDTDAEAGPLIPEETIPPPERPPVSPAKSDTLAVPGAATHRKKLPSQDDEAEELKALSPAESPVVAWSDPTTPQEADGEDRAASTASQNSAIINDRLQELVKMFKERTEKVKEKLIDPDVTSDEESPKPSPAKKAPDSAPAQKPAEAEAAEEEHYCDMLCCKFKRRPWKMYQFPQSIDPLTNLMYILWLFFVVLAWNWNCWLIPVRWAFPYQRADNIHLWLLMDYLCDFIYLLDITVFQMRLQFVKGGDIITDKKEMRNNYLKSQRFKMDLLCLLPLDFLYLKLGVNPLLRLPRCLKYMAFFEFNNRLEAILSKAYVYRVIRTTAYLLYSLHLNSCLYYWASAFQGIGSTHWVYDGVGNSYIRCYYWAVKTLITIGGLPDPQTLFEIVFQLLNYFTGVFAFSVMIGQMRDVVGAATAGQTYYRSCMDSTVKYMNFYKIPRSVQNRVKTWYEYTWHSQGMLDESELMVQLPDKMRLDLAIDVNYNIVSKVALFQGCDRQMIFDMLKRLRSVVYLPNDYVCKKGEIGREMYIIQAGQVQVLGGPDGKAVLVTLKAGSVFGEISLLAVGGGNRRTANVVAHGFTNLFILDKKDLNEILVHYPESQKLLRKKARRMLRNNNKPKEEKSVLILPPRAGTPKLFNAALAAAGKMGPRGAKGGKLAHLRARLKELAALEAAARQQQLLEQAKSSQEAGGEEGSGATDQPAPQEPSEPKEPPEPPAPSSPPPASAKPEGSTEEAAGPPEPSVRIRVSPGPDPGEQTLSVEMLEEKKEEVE
T3 sequence (Q00195 whole entry R538E): as the sequence (Q00195 whole entry R538E) above
T3 sequence (Q64359 whole entry): as the sequence (Q64359 whole entry) above
T3 sequence (A0A8I5ZN27 1-858 isoform A0A8I5ZN27-2 R657E): as the sequence (A0A8I5ZN27 1-858 isoform A0A8I5ZN27-2, stated change not applied) above, with R657E counted along it
T1 sequence (Q00195 whole entry): as the sequence (Q00195 whole entry R538E) above, with E538R counted along it
T1 sequence (Q64359 whole entry): as the sequence (Q64359 whole entry) above
T2 sequence (Q00195 whole entry): as the sequence (Q00195 whole entry R538E) above, with E538R counted along it
T2 sequence (A0A8I5ZN27 1-858 isoform A0A8I5ZN27-2): as the sequence (A0A8I5ZN27 1-858 isoform A0A8I5ZN27-2, stated change not applied) above

Compound	Ligand binding to CNGA4 (CNGA2RE:A4)	EC50 (CNGA2:A4 channels; Equation 1) [µM]	H (CNGA2:A4 channels; Hill coefficient)	EC50 (CNGA2:B1b channels; Equation 1) [µM]	H (CNGA2:B1b channels; Hill coefficient)	H1 [1, 3]	a (contribution of the high affinity component) ([1]; fraction, Equation 2)	EC50 ([1]; high affinity component (action of CNGA4), read-out: EC50,h)	EC50 [1, 4] [µM]	maximum contribution of CNGA4 to channel activation (a) ([1]; of the maximum channel activity generated by all subunits)	Hh (CNGA2RE:A4:B1b channels; Hill coefficient of high affinity component, +100 mV)	H1 (CNGA2RE:A4:B1b channels; [3])	contribution of the high-affinity component (a) (CNGA2RE:A4:B1b channels; combined contribution of CNGA4 and CNGB1b) [%]	a (contribution of the high affinity component) (CNGA2RE:A4:B1b channels; fraction, Equation 2)	EC50 (CNGA2RE:A4:B1b channels; high affinity component (CNGA4 and CNGB1b combined), read-out: EC50,h) [µM]	EC50 (CNGA2RE:A4:B1b channels; [4]) [µM]	EC50 [2] [µM]
8-[DY-547]-AET-cGMP [fcGMP]	+																
Nc1nc2c(ncn2[C@@H]2O[C@@H]3COP(=O)(O)O[C@H]3[C@H]2O)c(=O)[nH]1 [cGMP]		1.28	1.7	1.9	2.0	1.1	0.24	8.9 µM and 8.86 µM	364	24.6% and ~ 24%	1.05 and 1.1	1.2	89	0.89	5.7	733	22.2

— article PMC4942689, “Deciphering the function of the CNGB1b subunit in olfactory CNG channels” (Scientific Reports, 2016)
